Measured values as given in patent publication US12398101B2, “Herbicidal 2-azaspiro[3-5]nonane compounds” (SYNGENTA CROP PROTECTION AG, priority 2018, dated 2025).

Columns and labels:
Assay type in all cases: in vivo
Settings in all cases: 250 g/h, evaluated after 13 days
Avena fatua (AVEFA) [1] = experiment: Glasshouse herbicide test, pre-emergence application
Experimental: (§1) Seeds of a variety of test species are sown in standard soil in pots (Lolium perenne (LOLPE), Setaria faberi (SETFA), Echinochloa crus-galli (ECHCG), Avena fatua (AVEFA)). After cultivation for one day (pre-emergence) or after 8 days cultivation (post-emergence) under controlled conditions in a glasshouse (at 24/16° C., day/night; 14 hours light; 65% humidity), the plants are sprayed with an aqueous spray solution derived from the formulation of the technical active ingredient in acetone/water (50:50) solution containing 0.5% Tween 20 (polyoxyethelyene sorbitan monolaurate, CAS RN 9005-64-5). Compounds are applied at 250 g/h. The test plants are then grown in a glasshouse under controlled conditions in a glasshouse (at 24/16° C., day/night; 14 hours light; 65% humidity) and watered twice daily. After 13 days for pre and post-emergence, the test is evaluated for the percentage damage caused to the plant. The biological activities are shown in the following table on a five point scale (5=80-100%; 4=60-79%; 3=40-59%; 2=20-39%; 1=0-19%).

[2] = system: Echinochloa crus-galli (ECHCG); experiment: as above
Experimental: as §1

Lolium perenne (LOLPE) [3] = experiment: as above
Experimental: as §1

Setaria faberi (SETFA) [4] = experiment: as above
Experimental: as §1

Avena fatua (AVEFA) [5] = experiment: Glasshouse herbicide test, post-emergence application
Experimental: as §1

[6] = system: Echinochloa crus-galli (ECHCG); experiment: as above
Experimental: as §1

Lolium perenne (LOLPE) [7] = experiment: as above
Experimental: as §1

Setaria faberi (SETFA) [8] = experiment: as above
Experimental: as §1

| SMILES | percentage damage caused to the plant, five point scale, AVEFA (Avena fatua (AVEFA) [1]) | percentage damage caused to the plant, five point scale, ECHCG [2] | percentage damage caused to the plant, five point scale, LOLPE (Lolium perenne (LOLPE) [3]) | percentage damage caused to the plant, five point scale, SETFA (Setaria faberi (SETFA) [4]) | percentage damage caused to the plant, five point scale, AVEFA (Avena fatua (AVEFA) [5]) | percentage damage caused to the plant, five point scale, ECHCG [6] | percentage damage caused to the plant, five point scale, LOLPE (Lolium perenne (LOLPE) [7]) | percentage damage caused to the plant, five point scale, SETFA (Setaria faberi (SETFA) [8]) |
| --- | --- | --- | --- | --- | --- | --- | --- | --- |
| CC#Cc1cc(C)c(C2C(=O)CC3(CC2=O)CN(C(=O)COC)C3)c(OC)c1 [Compound 1.017] | 5 (5=80-100%) | 5 (5=80-100%) | 5 (5=80-100%) | 5 (5=80-100%) | 5 (5=80-100%) | 4 (4=60-79%) | 5 (5=80-100%) | 5 (5=80-100%) |
| CC#Cc1cc(C)c(C2C(=O)CC3(CC2=O)CN(C(=O)NC(C)(C)C)C3)c(OC)c1 [Compound 1.018] | 5 (5=80-100%) | 5 (5=80-100%) | 5 (5=80-100%) | 5 (5=80-100%) | 5 (5=80-100%) | 5 (5=80-100%) | 5 (5=80-100%) | 5 (5=80-100%) |
| CC#Cc1cc(C)c(C2C(=O)CC3(CC2=O)CN(C(=O)NC(=O)C(C)(C)C)C3)c(OC)c1 [Compound 1.019] | 4 (4=60-79%) | 5 (5=80-100%) | 4 (4=60-79%) | 4 (4=60-79%) | 5 (5=80-100%) | 4 (4=60-79%) | 5 (5=80-100%) | 5 (5=80-100%) |
| CC#Cc1cc(C)c(C2C(=O)CC3(CC2=O)CN(C(=O)C2CC2)C3)c(OC)c1 [Compound 1.020] | 5 (5=80-100%) | 5 (5=80-100%) | 5 (5=80-100%) | 5 (5=80-100%) | 5 (5=80-100%) | 5 (5=80-100%) | 5 (5=80-100%) | 5 (5=80-100%) |
| CC#Cc1cc(C)c(C2C(=O)CC3(CC2=O)CN(C(=O)C(C)(C)C)C3)c(OC)c1 [Compound 1.021] | 5 (5=80-100%) | 5 (5=80-100%) | 5 (5=80-100%) | 5 (5=80-100%) | 5 (5=80-100%) | 5 (5=80-100%) | 5 (5=80-100%) | 5 (5=80-100%) |
| CC#Cc1cc(C)c(C2C(=O)CC3(CC2=O)CN(C(=O)NC(=O)c2ccccn2)C3)c(OC)c1 [Compound 1.022] | 2 (2=20-39%) | 4 (4=60-79%) | 3 (3=40-59%) | 5 (5=80-100%) | 5 (5=80-100%) | 5 (5=80-100%) | 5 (5=80-100%) | 5 (5=80-100%) |
| CC#Cc1cc(C)c(C2C(=O)CC3(CC2=O)CN(C(=O)CC#N)C3)c(OC)c1 [Compound 1.023] | 2 (2=20-39%) | 1 (1=0-19%) | 3 (3=40-59%) | 3 (3=40-59%) | 5 (5=80-100%) | 5 (5=80-100%) | 5 (5=80-100%) | 5 (5=80-100%) |
| CC#Cc1cc(C)c(C2C(=O)CC3(CC2=O)CN(C(=O)C(F)F)C3)c(OC)c1 [Compound 1.024] | 5 (5=80-100%) | 5 (5=80-100%) | 5 (5=80-100%) | 5 (5=80-100%) | 5 (5=80-100%) | 5 (5=80-100%) | 5 (5=80-100%) | 5 (5=80-100%) |
| CC#Cc1cc(Cl)c(C2C(=O)CC3(CC2=O)CN(C(=O)C(F)F)C3)c(OC)c1 [Compound 1.193] | 5 (5=80-100%) | 5 (5=80-100%) | 5 (5=80-100%) | 5 (5=80-100%) | 5 (5=80-100%) | 5 (5=80-100%) | 5 (5=80-100%) | 5 (5=80-100%) |
| CC#Cc1cc(Cl)c(C2C(=O)CC3(CC2=O)CN(C(C)=O)C3)c(OC)c1 [Compound 1.195] | 5 (5=80-100%) | 5 (5=80-100%) | 5 (5=80-100%) | 5 (5=80-100%) | 5 (5=80-100%) | 5 (5=80-100%) | 5 (5=80-100%) | 5 (5=80-100%) |
| CC#Cc1cc(Cl)c(C2C(=O)CC3(CC2=O)CN(C(=O)C2CC2)C3)c(OC)c1 [Compound 1.196] | 5 (5=80-100%) | 5 (5=80-100%) | 5 (5=80-100%) | 5 (5=80-100%) | 5 (5=80-100%) | 5 (5=80-100%) | 5 (5=80-100%) | 5 (5=80-100%) |
| CC#Cc1cc(Cl)c(C2C(=O)CC3(CC2=O)CN(C(=O)c2ccccc2)C3)c(OC)c1 [Compound 1.201] | 5 (5=80-100%) | 5 (5=80-100%) | 5 (5=80-100%) | 5 (5=80-100%) | 5 (5=80-100%) | 5 (5=80-100%) | 5 (5=80-100%) | 5 (5=80-100%) |
| CC#Cc1cc(Cl)c(C2C(=O)CC3(CC2=O)CN(C(=O)C(C)(C)C)C3)c(OC)c1 [Compound 1.202] | 5 (5=80-100%) | 5 (5=80-100%) | 5 (5=80-100%) | 5 (5=80-100%) | 5 (5=80-100%) | 5 (5=80-100%) | 5 (5=80-100%) | 5 (5=80-100%) |
| COc1cc(-c2ccc(F)cc2)cc(C)c1C1C(=O)CC2(CC1=O)CN(C(C)=O)C2 [Compound 1.203] | 5 (5=80-100%) | 5 (5=80-100%) | 4 (4=60-79%) | 5 (5=80-100%) | 5 (5=80-100%) | 5 (5=80-100%) | 5 (5=80-100%) | 5 (5=80-100%) |
| CC#Cc1cc(C)c(C2=C(OC(=O)OC)CC3(CC2=O)CN(C(C)=O)C3)c(C)c1 [Compound 2.001, 2-acetyl-7-(2,6-dimethyl-4-prop-1-ynyl-phenyl)-6-oxo-2-azaspiro[3.5]non-7-en-8-yl] methyl carbonate] | 5 (5=80-100%) | 5 (5=80-100%) | 5 (5=80-100%) | 5 (5=80-100%) | 5 (5=80-100%) | 5 (5=80-100%) | 5 (5=80-100%) | 5 (5=80-100%) |
